According to ChEMBL document CHEMBL1127439, “Structure-activity relationship studies of central nervous system agents. 13. 4-[3-(Benzotriazol-1-yl)propyl]-1-(2-methoxyphenyl)piperazine, a new putative 5-HT1A receptor antagonist, and its analogs” (J Med Chem, 1994):

Columns and labels:
[1] = molecular target: T1, 5-hydroxytryptamine receptor 1A (Rattus norvegicus, UniProt P19327); assay: Tested in vitro for receptor binding affinity against 5-hydroxytryptamine 1A receptor using radioligand [3H]8-OH-DPAT
T1 sequence (P19327 whole entry): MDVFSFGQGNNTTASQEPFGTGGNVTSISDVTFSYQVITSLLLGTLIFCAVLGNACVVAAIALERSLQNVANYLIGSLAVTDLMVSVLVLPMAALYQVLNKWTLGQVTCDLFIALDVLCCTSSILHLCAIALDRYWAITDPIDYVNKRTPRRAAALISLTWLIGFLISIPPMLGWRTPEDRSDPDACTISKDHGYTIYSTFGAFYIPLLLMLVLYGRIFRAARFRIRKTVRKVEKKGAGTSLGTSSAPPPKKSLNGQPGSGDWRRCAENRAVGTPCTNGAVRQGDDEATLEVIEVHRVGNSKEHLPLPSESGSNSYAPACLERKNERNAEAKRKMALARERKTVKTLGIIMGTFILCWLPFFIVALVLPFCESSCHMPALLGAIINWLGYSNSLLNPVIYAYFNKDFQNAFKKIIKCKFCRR

[2] = molecular target: Serotonin 2 (5-HT2) receptor (Rattus norvegicus, UniProt P30994+P08909+P14842); assay: Tested in vitro for receptor binding affinity against 5-hydroxytryptamine 2 receptor using radioligand [3H]ketanserin; format: protein assay
Mus musculus [3] = assay: Effect on body temperature in mice at intraperitoneal dosage of 2 mg/kg, (compound administered 30 min before the test) after 30 min; format: functional
Mus musculus [4] = assay: Effect on body temperature in mice at intraperitoneal dosage of 2 mg/kg, (compound administered 30 min before the test) after 45 min; format: functional
Mus musculus [5] = assay: Effect on body temperature in mice at intraperitoneal dosage of 2 mg/kg, (compound administered 30 min before the test) after 60 min; format: functional
Mus musculus [6] = assay: Effect on 8-OH-DPAT-induced hypothermia in mice (5 mg/kg) at intraperitoneal dosage of 4 mg/kg of compound after 45 mins; format: functional
Mus musculus [7] = assay: Effect on 8-OH-DPAT-induced hypothermia in mice (5 mg/kg) at intraperitoneal dosage of 4 mg/kg of compound after 60 mins; format: functional
Mus musculus [8] = assay: Effect on 8-OH-DPAT-induced hypothermia in mice (5 mg/kg) at intraperitoneal dosage of 8 mg/kg of compound after 15 mins; format: functional
Mus musculus [9] = assay: Effect on 8-OH-DPAT-induced hypothermia in mice (5 mg/kg) at intraperitoneal dosage of 8 mg/kg of compound after 30 mins; format: functional
Mus musculus [10] = assay: Effect on 8-OH-DPAT-induced hypothermia in mice (5 mg/kg) at intraperitoneal dosage of 8 mg/kg of compound after 45 mins; format: functional
Mus musculus [11] = assay: Effect on 8-OH-DPAT-induced hypothermia in mice (5 mg/kg) at intraperitoneal dosage of 8 mg/kg of compound after 60 mins; format: functional
Mus musculus [12] = assay: Effect on body temperature in mice at intraperitoneal dosage of 8 mg/kg, (compound administered 30 min before the test) after 75 min; format: functional
Mus musculus [13] = assay: Effect on body temperature in mice at intraperitoneal dosage of 8 mg/kg, (compound administered 30 min before the test) after 90 min; format: functional
Mus musculus [14] = assay: Effect on body temperature in mice at intraperitoneal dosage of 2 mg/kg, (compound administered 30 min before the test) after 75 min; format: functional
Mus musculus [15] = assay: Effect on 8-OH-DPAT-induced hypothermia in mice (5 mg/kg) at intraperitoneal dosage of 2 mg/kg of compound after 15 mins; format: functional
Mus musculus [16] = assay: Effect on 8-OH-DPAT-induced hypothermia in mice (5 mg/kg) at intraperitoneal dosage of 2 mg/kg of compound after 30 mins; format: functional
Mus musculus [17] = assay: Effect on 8-OH-DPAT-induced hypothermia in mice (5 mg/kg) at intraperitoneal dosage of 2 mg/kg of compound after 45 mins; format: functional
Mus musculus [18] = assay: Effect on 8-OH-DPAT-induced hypothermia in mice (5 mg/kg) at intraperitoneal dosage of 2 mg/kg of compound after 60 mins; format: functional
Mus musculus [19] = assay: Effect on 8-OH-DPAT-induced hypothermia in mice (5 mg/kg) at intraperitoneal dosage of 4 mg/kg of compound after 15 mins; format: functional
Mus musculus [20] = assay: Effect on 8-OH-DPAT-induced hypothermia in mice (5 mg/kg) at intraperitoneal dosage of 4 mg/kg of compound after 30 mins; format: functional
Mus musculus [21] = assay: Effect on body temperature in mice at intraperitoneal dosage of 2 mg/kg, (compound administered 30 min before the test) after 90 min; format: functional
Mus musculus [22] = assay: Effect on body temperature in mice at intraperitoneal dosage of 4 mg/kg, (compound administered 30 min before the test) after 60 min; format: functional
Mus musculus [23] = assay: Effect on body temperature in mice at intraperitoneal dosage of 4 mg/kg, (compound administered 30 min before the test) after 75 min; format: functional
Mus musculus [24] = assay: Effect on body temperature in mice at intraperitoneal dosage of 4 mg/kg, (compound administered 30 min before the test) after 90 min; format: functional
Mus musculus [25] = assay: Effect on body temperature in mice at intraperitoneal dosage of 4 mg/kg, (compound administered 30 min before the test) after 30 min; format: functional
Mus musculus [26] = assay: Effect on body temperature in mice at intraperitoneal dosage of 8 mg/kg, (compound administered 30 min before the test) after 30 min; format: functional
Mus musculus [27] = assay: Effect on body temperature in mice at intraperitoneal dosage of 8 mg/kg, (compound administered 30 min before the test) after 45 min; format: functional
Mus musculus [28] = assay: Effect on body temperature in mice at intraperitoneal dosage of 8 mg/kg, (compound administered 30 min before the test) after 60 min; format: functional
Rattus norvegicus [29] = assay: Tested for the effect on 8-OH-DPAT-induced behavior in reserpine pretreated rat against flat body posture at dosage of 1 mg/kg; format: functional
Rattus norvegicus [30] = assay: Tested for the effect on 8-OH-DPAT-induced behavior in reserpine pretreated rat against flat body posture at dosage of 16 mg/kg; format: functional
Rattus norvegicus [31] = assay: Tested for the effect on 8-OH-DPAT-induced behavior in reserpine pretreated rat against flat body posture at dosage of 2 mg/kg; format: functional
Rattus norvegicus [32] = assay: Tested for the effect on 8-OH-DPAT-induced behavior in reserpine pretreated rat against flat body posture at dosage of 4 mg/kg; format: functional
Rattus norvegicus [33] = assay: Tested for the effect on 8-OH-DPAT-induced behavior in reserpine pretreated rat against flat body posture at dosage of 8 mg/kg; format: functional
Rattus norvegicus [34] = assay: Tested for the effect on 8-OH-DPAT-induced behavior in reserpine pretreated rat against forepaw treading at dosage of 1 mg/kg; format: functional
Rattus norvegicus [35] = assay: Tested for the effect on 8-OH-DPAT-induced behavior in reserpine pretreated rat against forepaw treading at dosage of 16 mg/kg; format: functional
Rattus norvegicus [36] = assay: Tested for the effect on 8-OH-DPAT-induced behavior in reserpine pretreated rat against forepaw treading at dosage of 2 mg/kg; format: functional
Rattus norvegicus [37] = assay: Tested for the effect on 8-OH-DPAT-induced behavior in reserpine pretreated rat against forepaw treading at dosage of 8 mg/kg; format: functional
Rattus norvegicus [38] = assay: Tested for the effect on 8-OH-DPAT-induced lower lip retraction (LLR) in rat at dosage of 16 mg/kg; format: functional
Rattus norvegicus [39] = assay: Tested for the effect on 8-OH-DPAT-induced lower lip retraction (LLR) in rat at dosage of 2 mg/kg; format: functional
Rattus norvegicus [40] = assay: Tested for the effect on 8-OH-DPAT-induced lower lip retraction (LLR) in rat at dosage of 4 mg/kg; format: functional
Rattus norvegicus [41] = assay: Tested for the effect on 8-OH-DPAT-induced lower lip retraction (LLR) in rat at dosage of 8 mg/kg; format: functional
Rattus norvegicus [42] = assay: Tested for the induction of lower lip retraction (LLR) by the investigated compounds in rat at dosage of 16 mg/kg; format: functional
Rattus norvegicus [43] = assay: Tested for the induction of lower lip retraction (LLR) by the investigated compounds in rat at dosage of 2 mg/kg; format: functional
Rattus norvegicus [44] = assay: Tested for the induction of lower lip retraction (LLR) by the investigated compounds in rat at dosage of 4 mg/kg; format: functional
Rattus norvegicus [45] = assay: Tested for the induction of lower lip retraction (LLR) by the investigated compounds in rat at dosage of 8 mg/kg; format: functional
Rattus norvegicus [46] = organism: Rattus norvegicus; assay: Selectivity is the ratio between Ki values of 5-HT2 and 5-HT1A
Mus musculus [47] = assay: Effect on body temperature in mice at intraperitoneal dosage of 4 mg/kg, (compound administered 30 min before the test) after 45 min; format: functional
Rattus norvegicus [48] = assay: Tested for the effect on 8-OH-DPAT-induced behavior in reserpine pretreated rat against forepaw treading at dosage of 4 mg/kg; format: functional

`COc1ccccc1N1CCN(CCCCn2nc3ccccc3n2)CC1` gave a Ki [1] of 4 nM, a Ki [2] of 214 nM and a Delta t (Mus musculus [3]) of 0.1 °C. It also gave a Delta t (Mus musculus [4]) of 0 °C, a Delta t (Mus musculus [5]) of 0.2 °C and a Delta t (Mus musculus [6]) of 1.8 °C. The Delta t (Mus musculus [7]) was 1.3 °C, the Delta t (Mus musculus [8]) was 2.4 °C and the Delta t (Mus musculus [9]) was 2.2 °C. It also gave a Delta t (Mus musculus [10]) of 1.6 °C, a Delta t (Mus musculus [11]) of 1.1 °C and a Delta t (Mus musculus [12]) of 2 °C. It also gave a Delta t (Mus musculus [13]) of 1.4 °C, a Delta t (Mus musculus [14]) of 0.3 °C and a Delta t (Mus musculus [15]) of 2.1 °C. It also gave a Delta t (Mus musculus [16]) of 1.9 °C, a Delta t (Mus musculus [17]) of 1.2 °C and a Delta t (Mus musculus [18]) of 0.9 °C. The Delta t (Mus musculus [19]) was 2.7 °C, the Delta t (Mus musculus [20]) was 2.3 °C and the Delta t (Mus musculus [21]) was 0.1 °C. For the same compound, the Delta t (Mus musculus [22]) was 0.9 °C, the Delta t (Mus musculus [23]) was 0.8 °C and the Delta t (Mus musculus [24]) was 0.8 °C. For the same compound, the Delta t (Mus musculus [25]) was 0.9 °C, the Delta t (Mus musculus [26]) was 2.8 °C and the Delta t (Mus musculus [27]) was 2.5 °C. It also gave a Delta t (Mus musculus [28]) of 2 °C, a Behavioral score (Rattus norvegicus [29]) of 14.2 and a Behavioral score (Rattus norvegicus [30]) of 2.6. It also gave a Behavioral score (Rattus norvegicus [31]) of 9.3, a Behavioral score (Rattus norvegicus [32]) of 11.7 and a Behavioral score (Rattus norvegicus [33]) of 5.2. The Behavioral score (Rattus norvegicus [34]) was 13.6, the Behavioral score (Rattus norvegicus [35]) was 1.3 and the Behavioral score (Rattus norvegicus [36]) was 5.6. For the same compound, the Behavioral score (Rattus norvegicus [37]) was 2.4, the LLR score (Rattus norvegicus [38]) was 2.4 and the LLR score (Rattus norvegicus [39]) was 2.5. The LLR score (Rattus norvegicus [40]) was 2.3, the LLR score (Rattus norvegicus [41]) was 2.4 and the LLR score (Rattus norvegicus [42]) was 1.9. It also gave an LLR score (Rattus norvegicus [43]) of 0.3, an LLR score (Rattus norvegicus [44]) of 1 and an LLR score (Rattus norvegicus [45]) of 1.5. The Selectivity (Rattus norvegicus [46]) was 54, the Delta t (Mus musculus [47]) was 0.8 °C and the Behavioral score (Rattus norvegicus [48]) was 5.1.
